Experiments:
Type in all cases: cell-based
[1] = tested on: MCF-7 (breast carcinoma) cell line; experiment: MTT cytotoxicity assay, MCF-7; conditions: Homo sapiens, MCF7, 48 h, mean of three independent experiments, read-out: IC50 (μM) Mean ± SD, MCF-7
Method: (§1) All cell lines (A549, SGC-7901, Hela, SMMC-7721, and MCF-7) were purchased from the American Type Culture Collection (Manassas, VA, USA), and were cultured in Dulbecco’s modified Eagle’s medium (DMEM, HycloneLaboratories Inc., Logan, Utah, USA) supplemented with 10% fetal bovine serum (FBS, Gibco&Invitrogen, Carlsbad, CA, USA) at 37 °C and 5% CO2.
(§2) The cytotoxic activities of β-carboline-3-carboxylic acid derivatives were investigated by the MTT method, as previously described. Cells (1 × 10^4 cells per well) seeded into 96-well plates (JET, Guangzhou, China) were incubated with DMEM containing various concentrations (2.5, 5, 10, 20, 40, and 80 μM) of β-carbolines (4A, 4B, 4C, 4D, 6a-6f, 6g-6l, 6m-6r, and 6s-6x) for 48 h at 37 °C and 5% CO2. Then, 10 µL of 5 mg/mL MTT reagent dissolved in PBS (Phosphate buffered saline) was added per well, and plates were incubated at 37 °C for 4 h. The medium was carefully removed and 100 µL dimethyl sulfoxide (DMSO) was added to dissolve the formazan crystals. The absorbance was measured at 490 nm with a microplate reader (ThermoFisher Scientific Inc., Waltham, MA, USA). The β-carbolines were dissolved in DMSO as stock solutions (10 mM) at −20 °C, and diluted in the final experimental solution using DMEM before use. A549 (lung carcinoma), SGC-7901 (gastric carcinoma), Hela (cervical carcinoma), SMMC-7721 (liver carcinoma), and MCF-7 (breast carcinoma) cell lines were used for the antitumor activity screening. The IC50 values were the mean values of three independent experiments.

A549 cells [2] = experiment: Hoechst 33342/PI dual staining, morphological observation of apoptosis; conditions: A549, 48 h, 8 μM (Figure 1 legend; method says 4 μM)
Method: The morphological observation of apoptosis was performed by Hoechst 33342 and propidium iodide (PI) dual staining according to the manufacturer’s instructions. A549 cells (2 × 10^4 cells per well) seeded into 24-well plates (JET, Guangzhou, China) were incubated with DMEM containing 4 μM of β-carbolines (4B, 6i, 4D, and 6u) for 48 h at 37 °C and 5% CO2. Then, the cells were stained by Hoechst 33342 and PI at 37 °C for 30 min in dark conditions. Finally, cells were observed and photographed with a fluorescence microscope (LeicaDM6B, Leica, Nussloch, Germany).
Figure 1 Morphological observation was performed by Hoechst 33342/propidium iodide (PI) dual staining. A549 cells were treated with 4B, 6i, 4D, and 6u at 8 μM for 48 h, and then stained with Hoechst 33342 and PI at 37 °C in dark conditions. The stained cells were observed under a fluorescence microscope (Leica DM6B, Leica, Nussloch, Germany). Hoechst 33342 was used to stain the living and apoptotic nuclei, and emitted blue fluorescence (upper). PI was used to stain the dead nuclei and emitted red fluorescence (lower).

[3] = tested on: MRC5 (normal lung cell) cell line; experiment: MTT cytotoxicity assay, MRC5; conditions: Homo sapiens, 48 h
Method: [The procedure below names another cell line; the source lists this cell line under the same test.] as §2

A549 cells [4] = experiment: Cell apoptosis assay, Annexin V-FITC/PI dual staining, flow cytometry; conditions: 48 h; for Percentage of Cell Apoptosis (%) Normal Living Cell: lower left quadrant in Figure 3; for Percentage of Cell Apoptosis (%) Early Apoptosis: lower right quadrant in Figure 3
Method: The cell apoptosis was evaluated using Annexin V-FITC/PI dual staining (Beyotime, China). A549 cells (1 × 10^6 cells per well) seeded into 6-well plates (JET, Guangzhou, China) were incubated with DMEM containing various concentrations (2, 4, and 8 μM) of β-carbolines (4B, 6i, 4D, and 6u) for 48 h at 37 °C and 5% CO2. The cells in the supernatant and adherent were collected and washed with PBS, and then the cells were stained with Annexin V-FITC and PI for 20 min at r.t. The samples were analyzed using flow cytometry (Becton Dickinson, San Jose, CA, USA).
Figure 3 The cell apoptosis was detected by flow cytometry using Annexin V-FITC/PI dual staining. A549 cells were treated with 4B, 6i, 4D, and 6u at 2, 4, and 8 μM for 48 h, and then stained with Annexin V-FITC and PI for 15 min at 37 °C. The proportions of the living cells, the early apoptosis cells, and the late apoptotic cells were analyzed by FCS Express 5.0. TEXT PRINTED IN THE PICTURE: 4B: 9.00% (2 μM); 11.89% (2 μM); 75.93% (2 μM); 3.18% (2 μM); 8.92% (4 μM); 27.14% (4 μM); 48.59% (4 μM); 15.35% (4 μM); 3.89% (8 μM); 65.76% (8 μM); 21.95% (8 μM); 8.40% (8 μM) | 6i: 0.77% (2 μM); 20.26% (2 μM); 72.12% (2 μM); 6.85% (2 μM); 9.33% (4 μM); 33.08% (4 μM); 44.94% (4 μM); 12.65% (4 μM); 23.51% (8 μM); 59.73% (8 μM); 12.52% (8 μM); 4.24% (8 μM) | Control: 0.36%; 7.08%; 88.34%; 4.22% | 4D: 2.62% (2 μM); 16.16% (2 μM); 73.94% (2 μM); 7.27% (2 μM); 10.30% (4 μM); 34.96% (4 μM); 47.93% (4 μM); 6.80% (4 μM); 22.79% (8 μM); 54.30% (8 μM); 17.63% (8 μM); 5.28% (8 μM) | 6u: 0.17% (2 μM); 21.64% (2 μM); 66.05% (2 μM); 12.14% (2 μM); 6.92% (4 μM); 54.01% (4 μM); 32.53% (4 μM); 6.54% (4 μM); 2.79% (8 μM); 80.73% (8 μM); 8.83% (8 μM); 7.65% (8 μM) DOUBTS OF THE COPYIST ABOUT THIS PICTURE: The quadrant percentages carry no printed measure. For each plot they are listed in the order upper left, upper right, lower left, lower right. / All quadrant percentages are printed very small and blurred, so 3, 5, 6, 8 and 9 cannot be told apart with certainty in any of them.

[5] = tested on: Hela (cervical carcinoma) cell line; experiment: MTT cytotoxicity assay, Hela; conditions: Homo sapiens, 48 h, mean of three independent experiments, read-out: IC50 (μM) Mean ± SD, Hela
Method: as §1, §2

SMILES: COC(=O)c1cc2c3ccccc3n(Cc3ccccc3C)c2cn1 [Compound 4B]
- IC50 [1]: > 80 µM
- Morphological observation of cell apoptosis (Hoechst 33342/PI) (A549 cells [2]): could only induce cell apoptosis in a dose-dependent manner
- IC50 [3]: 51.78 ± 0.1 µM
- Percentage of Cell Apoptosis (%) Late Apoptosis and Necrosis (A549 cells [4]; A549, 2 μM): 20.89%
- Percentage of Cell Apoptosis (%) Normal Living Cell (A549 cells [4]; A549, 2 μM): 75.93%
- Percentage of Cell Apoptosis (%) Early Apoptosis (A549 cells [4]; A549, 2 μM): 3.18%
- Percentage of Cell Apoptosis (%) Late Apoptosis and Necrosis (A549 cells [4]; A549, 4 μM): 36.06%
- Percentage of Cell Apoptosis (%) Normal Living Cell (A549 cells [4]; A549, 4 μM): 48.59%
- Percentage of Cell Apoptosis (%) Early Apoptosis (A549 cells [4]; A549, 4 μM): 15.35%
- Percentage of Cell Apoptosis (%) Late Apoptosis and Necrosis (A549 cells [4]; A549, 8 μM): 69.65%
- Percentage of Cell Apoptosis (%) Normal Living Cell (A549 cells [4]; A549, 8 μM): 21.95%
- Percentage of Cell Apoptosis (%) Early Apoptosis (A549 cells [4]; A549, 8 μM): 8.40%
- IC50 [5]: 31.3 ± 2.33 µM

SMILES: COC(=O)c1cc2c3ccccc3n(Cc3ccccc3F)c2cn1 [Compound 4D]
- IC50 [1]: 53.9 ± 2.02 µM
- Morphological observation of cell apoptosis (Hoechst 33342/PI) (A549 cells [2]): could induce cell apoptosis and further cell necrosis
- IC50 [3]: 35.38 ± 0.01 µM
- Percentage of Cell Apoptosis (%) Late Apoptosis and Necrosis (A549 cells [4]; A549, 2 μM): 18.78%
- Percentage of Cell Apoptosis (%) Normal Living Cell (A549 cells [4]; A549, 2 μM): 73.94%
- Percentage of Cell Apoptosis (%) Early Apoptosis (A549 cells [4]; A549, 2 μM): 7.27%
- Percentage of Cell Apoptosis (%) Late Apoptosis and Necrosis (A549 cells [4]; A549, 4 μM): 45.26%
- Percentage of Cell Apoptosis (%) Normal Living Cell (A549 cells [4]; A549, 4 μM): 47.93%
- Percentage of Cell Apoptosis (%) Early Apoptosis (A549 cells [4]; A549, 4 μM): 6.80%
- Percentage of Cell Apoptosis (%) Late Apoptosis and Necrosis (A549 cells [4]; A549, 8 μM): 77.09%
- Percentage of Cell Apoptosis (%) Normal Living Cell (A549 cells [4]; A549, 8 μM): 17.63%
- Percentage of Cell Apoptosis (%) Early Apoptosis (A549 cells [4]; A549, 8 μM): 5.28%
- IC50 [5]: 26.4 ± 1.33 µM

SMILES: Cc1ccccc1Cn1c2ccccc2c2cc(C(=O)OCCCCCOC(=O)c3cc4c5ccccc5n(Cc5ccccc5C)c4cn3)ncc21 [Compound 6i]
- IC50 [1]: 59.3 ± 5.86 µM
- Morphological observation of cell apoptosis (Hoechst 33342/PI) (A549 cells [2]): could induce cell apoptosis and further cell necrosis
- IC50 [3]: 37.99 ± 0.1 µM
- Percentage of Cell Apoptosis (%) Late Apoptosis and Necrosis (A549 cells [4]; A549, 2 μM): 21.03%
- Percentage of Cell Apoptosis (%) Normal Living Cell (A549 cells [4]; A549, 2 μM): 72.12%
- Percentage of Cell Apoptosis (%) Early Apoptosis (A549 cells [4]; A549, 2 μM): 6.85%
- Percentage of Cell Apoptosis (%) Late Apoptosis and Necrosis (A549 cells [4]; A549, 4 μM): 42.41%
- Percentage of Cell Apoptosis (%) Normal Living Cell (A549 cells [4]; A549, 4 μM): 44.94%
- Percentage of Cell Apoptosis (%) Early Apoptosis (A549 cells [4]; A549, 4 μM): 12.65%
- Percentage of Cell Apoptosis (%) Late Apoptosis and Necrosis (A549 cells [4]; A549, 8 μM): 83.24%
- Percentage of Cell Apoptosis (%) Normal Living Cell (A549 cells [4]; A549, 8 μM): 12.52%
- Percentage of Cell Apoptosis (%) Early Apoptosis (A549 cells [4]; A549, 8 μM): 4.24%
- IC50 [5]: 9.88 ± 0.04 µM

SMILES: O=C(OCCCCCOC(=O)c1cc2c3ccccc3n(Cc3ccccc3F)c2cn1)c1cc2c3ccccc3n(Cc3ccccc3F)c2cn1 [Compound 6u]
- IC50 [1]: 36 ± 2.99 µM
- Morphological observation of cell apoptosis (Hoechst 33342/PI) (A549 cells [2]): could induce cell apoptosis and further cell necrosis
- IC50 [3]: 39.89 ± 0.05 µM
- Percentage of Cell Apoptosis (%) Late Apoptosis and Necrosis (A549 cells [4]; A549, 2 μM): 21.81%
- Percentage of Cell Apoptosis (%) Normal Living Cell (A549 cells [4]; A549, 2 μM): 66.05%
- Percentage of Cell Apoptosis (%) Early Apoptosis (A549 cells [4]; A549, 2 μM): 12.14%
- Percentage of Cell Apoptosis (%) Late Apoptosis and Necrosis (A549 cells [4]; A549, 4 μM): 60.93%
- Percentage of Cell Apoptosis (%) Normal Living Cell (A549 cells [4]; A549, 4 μM): 32.53%
- Percentage of Cell Apoptosis (%) Early Apoptosis (A549 cells [4]; A549, 4 μM): 6.54%
- Percentage of Cell Apoptosis (%) Late Apoptosis and Necrosis (A549 cells [4]; A549, 8 μM): 83.52%
- Percentage of Cell Apoptosis (%) Normal Living Cell (A549 cells [4]; A549, 8 μM): 8.83%
- Percentage of Cell Apoptosis (%) Early Apoptosis (A549 cells [4]; A549, 8 μM): 7.65%
- IC50 [5]: 14.6 ± 0.36 µM

— article PMC6214108, “Synthesis and In Vitro Antitumor Activity of Novel Bivalent β-Carboline-3-carboxylic Acid Derivatives with DNA as a Potential Target” (International Journal of Molecular Sciences, 2018)
